{"source": "patent US20190289805A1", "about": "“CULTURING METHOD FOR CULTURED LEGUMINOUS ROOTS HAVING INCREASED COUMESTROL CONTENT” (Amorepacific Corporation, priority 2016, published 2019)", "origin": "cited, not measured here", "system": "mouse uterus", "settings": "oral administration"}
{"smiles": "O=c1oc2cc(O)ccc2c2oc3cc(O)ccc3c12", "note": "[coumestrol]", "values": [{"measurement": "estrogen effect", "setting": "mature mice", "value": "has no estrogen effect"}, {"measurement": "estrogen effect (change in weight of uterus)", "setting": "young female mice", "value": "exhibits an effective estrogen effect"}]}
